Several values for one entry are separate records, joined by “and”; a condition that tells them apart may be missing. Equal entries are not always repeated. Where two headings read alike, the source gives them in different places.
What was measured:
VP16-TraR = assay: Transient GUS reporter assay in carrot protoplasts with VP16-TraR effector and tra box reporter; type: cell-based, Agrobacterium tumefaciens; details: Table 8: TraA8(4X) +TraR
Description: Carrot protoplasts were transfected with the TraA8 (4×)-GUS reporter construct with the 35S-VP16-TraR activator gene and tested for GUS induction by application of wild type AHL and the various AHL analogs described in Example 8.

tra box-GUS reporter = test system: tra box-GUS reporter
Procedure: Plasmids for transfection were isolated and purified using Megaprep plasmid DNA isolation kit (Qiagen). Carrot protoplasts for transfections were prepared from carrot cell suspension culture and transfected with purified DNA as described (Ulmasov et al., Plant Cell 7:1611–1623, 1995). Briefly, 10 μg of the reporter plasmid and 5 μg of the effector plasmid were incubated with 10^6 protoplasts for five minutes at the room temperature in the presence of polyethylene glycol-calcium solution. After diluting approximately 10-fold with the culture medium, the protoplasts were incubated in the dark for 36 hours either in the presence or absence of the inducer 3-oxohexanoyl-homoserine lactone (OHHL, racemic mixture of the L- and D-isomers, purchased from Sigma Chemical Co., St Louis, Mo.). After incubation, protoplasts were collected by low-speed centrifugation, lysed and the level of GUS activity was measured using fluorometric GUS assay (Jefferson et al., EMBO J. 6:3901–3907, 1987).
Ten μg of the reporter plasmid (pMON53031), and indicated amount of the 35S effector plasmid per reaction was used for transfection in triplicate. […] The “− inducer” and “+ inducer” columns are averages of the GUS activities.
These constructs were tested for background GUS activity and TraR responsiveness in carrot protoplasts.

[1] = Table 5 lane 1: tra box (6X), cl.7 alone (35S-CAT), 12.5 μM C8-AHL
[2] = Table 5 lane 3: traA1(3X), cl.35 alone (35S-CAT), 12.5 μM C8-AHL
[3] = Table 5 lane 5: traA2(3X), cl.43 alone (35S-CAT), 12.5 μM C8-AHL
[4] = Table 5 lane 7: traA3(3X), cl.4 alone (35S-CAT), 12.5 μM C8-AHL
[5] = Table 5 lane 9: traA4(3X), cl.23 alone (35S-CAT), 12.5 μM C8-AHL
[6] = Table 5 lane 11: traA5(3X), cl.2 alone (35S-CAT), 12.5 μM C8-AHL
[7] = Table 5 lane 13: traA6(3X), cl.21 alone (35S-CAT), 12.5 μM C8-AHL
[8] = Table 5 lane 15: traA7(3X), cl.15 alone (35S-CAT), 12.5 μM C8-AHL
[9] = Table 5 lane 17: traA8(3X), cl.4 alone (35S-CAT), 12.5 μM C8-AHL
[10] = Table 5 lane 19: traA9(3X), cl.8 alone (35S-CAT), 12.5 μM C8-AHL
[11] = Table 5 lane 21: min-46GUS, 12.5 μM C8-AHL
[12] = Table 6 lane 1: Tra box(3X), cl.5 + CAT, 12.5 μM C8-AHL
[13] = Table 6 lane 3: TraA1(3X), cl.35 + CAT, 12.5 μM C8-AHL
[14] = Table 6 lane 5: TraA2(3X), cl.43 + CAT, 12.5 μM C8-AHL
[15] = Table 6 lane 7: TraA3(3X), cl.4 + CAT, 12.5 μM C8-AHL
[16] = Table 6 lane 9: TraA4(3X), cl.23 + CAT, 12.5 μM C8-AHL
[17] = Table 6 lane 11: TraA5(3X), cl.2 + CAT, 12.5 μM C8-AHL
[18] = Table 6 lane 15: TraA7(3X), cl.15 + CAT, 12.5 μM C8-AHL
[19] = Table 6 lane 17: TraA8(3X), cl.4 + CAT, 12.5 μM C8-AHL
[20] = Table 6 lane 19: TraA9(3X), cl.8 + CAT, 12.5 μM C8-AHL
[21] = Table 6 lane 21: TraA10(3X), cl.17 + CAT, 12.5 μM C8-AHL
[22] = Table 6 lane 23: TraA-1(3X), cl.14 + CAT, 12.5 μM C8-AHL
[23] = Table 6 lane 25: min35S-46-GUS, 12.5 μM C8-AHL
[24] = Table 7 lane 1: S2-46GUS, 12.5 μM C8-AHL
[25] = Table 7 lane 2: TraA8(4X), cl.16 + CAT, 12.5 μM C8-AHL

Structure (SMILES): CCCCCC(=O)CC(=O)N[C@H]1CCOC1=O [C8-HSL, 3-oxooctanoyl-L-homoserine lactone]
- 1, 2, 3 (replicate GUS activities at the lower concentration) (VP16-TraR; 5 μM): 2820.7 and 3124.7 and 3110.7
- 4, 5, 6 (replicate GUS activities at the higher concentration) (VP16-TraR; 12.5 μM): 4386.9 and 4031.2 and 4010.3
- 1, 2, 3 (replicate GUS activities at the lower concentration) (VP16-TraR; 25 μM): 8183.1 and 7890.1 and 6855.5
- 4, 5, 6 (replicate GUS activities at the higher concentration) (VP16-TraR; 75 μM): 8036.8 and 7647.1 and 8243.2
- +inducer (average GUS activity) (tra box-GUS reporter; Table 4: min35S-GUS, 25 [i M OOHL]): 6.1
- +inducer (average GUS activity) (tra box-GUS reporter; Table 4: pMON53031 alone, 25 [i M OOHL]): 265
- 4, 5, 6 (replicate GUS activities, +inducer) (tra box-GUS reporter; [1]): 569.8 and 647.3 and 643.6
- +inducer (average GUS activity) (tra box-GUS reporter; [1]): 620.2
- 4, 5, 6 (replicate GUS activities, +inducer) (tra box-GUS reporter; [2]): 110.8 and 118.5 and 145.2
- +inducer (average GUS activity) (tra box-GUS reporter; [2]): 124.8
- 4, 5, 6 (replicate GUS activities, +inducer) (tra box-GUS reporter; [3]): 240.6 and 221.1 and 229.7
- +inducer (average GUS activity) (tra box-GUS reporter; [3]): 230.5
- 4, 5, 6 (replicate GUS activities, +inducer) (tra box-GUS reporter; [4]): 89.3 and 94.4 and 103.2
- +inducer (average GUS activity) (tra box-GUS reporter; [4]): 95.6
- 4, 5, 6 (replicate GUS activities, +inducer) (tra box-GUS reporter; [5]): 177.7 and 196.0 and 195.0
- +inducer (average GUS activity) (tra box-GUS reporter; [5]): 189.6
- 4, 5, 6 (replicate GUS activities, +inducer) (tra box-GUS reporter; [6]): 20.6 and 16.2 and 13.1
- +inducer (average GUS activity) (tra box-GUS reporter; [6]): 16.6
- 4, 5, 6 (replicate GUS activities, +inducer) (tra box-GUS reporter; [7]): 73.6 and 64.2 and 76.1
- +inducer (average GUS activity) (tra box-GUS reporter; [7]): 71.3
- 4, 5, 6 (replicate GUS activities, +inducer) (tra box-GUS reporter; [8]): 215.1 and 200.0 and 238.6
- +inducer (average GUS activity) (tra box-GUS reporter; [8]): 217.9
- 4, 5, 6 (replicate GUS activities, +inducer) (tra box-GUS reporter; [9]): 36.3 and 43.3 and 39.8
- +inducer (average GUS activity) (tra box-GUS reporter; [9]): 39.8
- 4, 5, 6 (replicate GUS activities, +inducer) (tra box-GUS reporter; [10]): 32.4 and 35.6 and 36.2
- +inducer (average GUS activity) (tra box-GUS reporter; [10]): 34.7
- 4, 5, 6 (replicate GUS activities, +inducer) (tra box-GUS reporter; [11]): 145.4 and 124.2 and 116.0
- +inducer (average GUS activity) (tra box-GUS reporter; [11]): 128.5
- 4, 5, 6 (replicate GUS activities, +inducer) (tra box-GUS reporter; [12]): 264.6 and 251.9 and 230.9
- +inducer (average GUS activity) (tra box-GUS reporter; [12]): 249.1
- 4, 5, 6 (replicate GUS activities, +inducer) (tra box-GUS reporter; [13]): 70.7 and 54.2 and 42.8
- +inducer (average GUS activity) (tra box-GUS reporter; [13]): 55.9
- 4, 5, 6 (replicate GUS activities, +inducer) (tra box-GUS reporter; [14]): 125.2 and 103.0 and 110.2
- +inducer (average GUS activity) (tra box-GUS reporter; [14]): 112.8
- 4, 5, 6 (replicate GUS activities, +inducer) (tra box-GUS reporter; [15]): 59.2 and 62.8 and 46.4
- +inducer (average GUS activity) (tra box-GUS reporter; [15]): 56.1
- 4, 5, 6 (replicate GUS activities, +inducer) (tra box-GUS reporter; [16]): 87.9 and 86.4 and 85.9
- +inducer (average GUS activity) (tra box-GUS reporter; [16]): 86.7
- 4, 5, 6 (replicate GUS activities, +inducer) (tra box-GUS reporter; [17]): 72.5 and 68.2 and 90.9
- +inducer (average GUS activity) (tra box-GUS reporter; [17]): 77.2
- +inducer (average GUS activity) (tra box-GUS reporter; Table 6 lane 13: TraA6(3X), cl.21 + CAT, 12.5 μM C8-AHL): 3.9
- 4, 5, 6 (replicate GUS activities, +inducer) (tra box-GUS reporter; [18]): 241.3 and 197.1 and 268.5
- +inducer (average GUS activity) (tra box-GUS reporter; [18]): 235.6
- 4, 5, 6 (replicate GUS activities, +inducer) (tra box-GUS reporter; [19]): 121.2 and 148.8 and 115.9
- +inducer (average GUS activity) (tra box-GUS reporter; [19]): 128.7
- 4, 5, 6 (replicate GUS activities, +inducer) (tra box-GUS reporter; [20]): 97.4 and 96.7 and 89.6
- +inducer (average GUS activity) (tra box-GUS reporter; [20]): 94.6
- 4, 5, 6 (replicate GUS activities, +inducer) (tra box-GUS reporter; [21]): 47.1 and 44.2 and 44.1
- +inducer (average GUS activity) (tra box-GUS reporter; [21]): 45.1
- 4, 5, 6 (replicate GUS activities, +inducer) (tra box-GUS reporter; [22]): 19.7 and 23.6 and 17.0
- +inducer (average GUS activity) (tra box-GUS reporter; [22]): 20.1
- 4, 5, 6 (replicate GUS activities, +inducer) (tra box-GUS reporter; [23]): 39.6 and 32.1 and 44.5
- +inducer (average GUS activity) (tra box-GUS reporter; [23]): 38.7
- 4, 5, 6 (replicate GUS activities, +inducer) (tra box-GUS reporter; [24]): 27.2 and 22.7 and 17.4
- +inducer (average GUS activity) (tra box-GUS reporter; [24]): 22.4
- 4, 5, 6 (replicate GUS activities, +inducer) (tra box-GUS reporter; [25]): 20.3 and 25.1 and 18.7
- +inducer (average GUS activity) (tra box-GUS reporter; [25]): 21.3

Reference: patent US7202085B2, “Control of gene expression in eukaryotic cells” (Calgene LLC, priority 1999, dated 2007)
